In assay [1] the target is T1, human Smo (amino acids 181-787) (Homo sapiens, UniProt Q99835).
T1 construct: expressed in transfected cells; membrane preparation
Description: Smo radioligand competition binding assay (displacement of 3H-PF-03451358 from HEK293 membranes). The conditions noted are these: for inhibition at 0.05 µM: 0.05 μM test compound, displacement of 3H-PF-03451358, read-out: SMO % inh. @ 0.05 μM; for IC50: radioligand competition binding. The method, boiled down:
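Membranes (40 μg protein/well) from HEK293 expressing murine Igk-leader-fused Smo 181-787 incubated 2 h at room temperature with 3 nM 3H-PF-03451358 in Tris pH 7.5/NaCl/MgCl2/EDTA/BSA buffer; filter-bound counts by scintillation. Nonspecific binding with 30 μM cold PF-03451358; IC50 from four-parameter fit of % inhibition.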

In the next assay the test system is Gli-Luc/MEF cells (Smo). Description: Gli-Luc/MEF assay (Shh-stimulated luciferase reporter under the Gli response element). It counts as cell-based, mouse. The conditions noted are these: Mus musculus, MEF, 48 h. Summed up:
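Mouse Gli-Luc/MEF cells dosed with compound (3-fold series, […]) plus 2 μg/mL recombinant mouse Shh, then incubated 48 h at 37° C, 5% CO2. Bright-Glo luminescence read; IC50 calculated from inhibition of Shh-stimulated luciferase.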
On the technique in general: In a reporter assay the amount or activity of a reporter protein is the signal.

One may read the IC50 as the concentration that gives 50% inhibition. The low end stands for greater potency, the high end for weaker potency.

T1 sequence (Q99835 181-787): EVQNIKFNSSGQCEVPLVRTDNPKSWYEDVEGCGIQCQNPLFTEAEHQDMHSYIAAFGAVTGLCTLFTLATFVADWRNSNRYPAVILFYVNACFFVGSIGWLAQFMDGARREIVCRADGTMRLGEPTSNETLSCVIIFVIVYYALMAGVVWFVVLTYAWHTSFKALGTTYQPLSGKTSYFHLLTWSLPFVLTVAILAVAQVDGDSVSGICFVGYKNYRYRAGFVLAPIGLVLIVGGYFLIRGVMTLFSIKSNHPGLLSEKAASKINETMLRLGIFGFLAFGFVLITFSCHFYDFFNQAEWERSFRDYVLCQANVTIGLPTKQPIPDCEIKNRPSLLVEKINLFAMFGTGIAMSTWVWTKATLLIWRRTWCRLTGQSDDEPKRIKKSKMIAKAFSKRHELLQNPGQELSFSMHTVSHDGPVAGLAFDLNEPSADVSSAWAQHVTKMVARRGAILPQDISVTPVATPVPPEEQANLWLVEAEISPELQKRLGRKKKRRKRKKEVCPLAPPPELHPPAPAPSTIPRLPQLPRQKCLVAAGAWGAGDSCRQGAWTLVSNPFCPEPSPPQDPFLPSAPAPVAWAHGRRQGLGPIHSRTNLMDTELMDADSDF

As to `COC(=O)N(C)C1CCN(c2cc(-c3nc4ccccc4n3C)c(Cl)cn2)C1` (stereo not drawn) [Example A-178, methyl {1-[5-chloro-4-(1-methyl-1H-benzimidazol-2-yl)pyridin-2-yl]pyrrolidin-3-yl}methylcarbamate], in assay [1], the inhibition at 0.05 µM is 92% and the IC50 was 43 nM. In addition, in the assay with Gli-Luc/MEF cells (Smo), 17 nM corresponded to half-maximal inhibition (IC50).

On to `CNC(=O)N(C)C1CCN(c2cc(-c3nc4ccccc4n3C)c(Cl)cn2)CC1` [Example A-179, 1-{1-[5-chloro-4-(1-methyl-1H-benzimidazol-2-yl)pyridin-2-yl]piperidin-4-yl}-1,3-dimethylurea], for which, in assay [1], the inhibition at 0.05 µM amounted to 97% and the IC50 was 10 nM. This compound had an IC50 in the assay with Gli-Luc/MEF cells (Smo) of 7 nM.

`CNC(=O)NC1CN(c2cc(-c3nc4ccccc4n3C)c(Cl)cn2)C1` [Example A-180, 1-{1-[5-chloro-4-(1-methyl-1H-benzimidazol-2-yl)pyridin-2-yl]azetidin-3-yl}-3-methylurea]: in assay [1], the inhibition at 0.05 µM worked out at 89% and the IC50 stood at 60 nM. In the assay on Gli-Luc/MEF cells (Smo), the IC50 turned out to be 43 nM.

Turning to `CN(C1CCN(c2cc(-c3nc4ccccc4n3C)c(Cl)cn2)C1)S(C)(=O)=O` (stereo not drawn) [Example A-181, N-{1-[5-chloro-4-(1-methyl-1H-benzimidazol-2-yl)pyridin-2-yl]pyrrolidin-3-yl}-N-methylmethanesulfonamide], in assay [1], the inhibition at 0.05 µM was determined as 98% and the IC50 amounted to 11 nM. Half-maximal inhibition in the assay with Gli-Luc/MEF cells (Smo) (IC50) required 9 nM.

`CNC(=O)N(C)C1CCN(c2cc(-c3nc4ccccc4n3C)c(Cl)cn2)C1` (stereo not drawn) [Example A-182, 1-{1-[5-chloro-4-(1-methyl-1H-benzimidazol-2-yl)pyridin-2-yl]pyrrolidin-3-yl}-1,3-dimethylurea]: in assay [1], the inhibition at 0.05 µM worked out at 85% and the IC50 worked out at 50 nM. In the assay on Gli-Luc/MEF cells (Smo), this compound returned an IC50 of 31 nM.

As to `CC(=O)N(C)C1CCN(c2cc(-c3nc4ccccc4n3C)c(Cl)cn2)C1` (stereo not drawn) [Example A-183, N-{1-[5-chloro-4-(1-methyl-1H-benzimidazol-2-yl)pyridin-2-yl]pyrrolidin-3-yl}-N-methylacetamide], in assay [1], the inhibition at 0.05 µM turned out to be 89% and the IC50 turned out to be 81 nM. In addition, in the assay with Gli-Luc/MEF cells (Smo), half-maximal inhibition (IC50) was put at 65 nM.

In the case of `Cn1c(-c2cc(N3C[C@H]4CC[C@@H](C3)N4)ncc2Cl)nc2ccccc21` [Example A-185, 2-{5-chloro-2-[(1R,5S)-3,8-diazabicyclo[3.2.1]oct-3-yl]pyridin-4-yl}-1-methyl-1H-benzimidazole], in assay [1], the inhibition at 0.05 µM was found to be 91% and the IC50 worked out at 20 nM. In the assay with Gli-Luc/MEF cells (Smo), this compound returned an IC50 of 14 nM.

On to `CN(CC(N)=O)c1cc(-c2nc3ccccc3n2C)c(Cl)cn1` [Example A-186, N~2~-[5-chloro-4-(1-methyl-1H-benzimidazol-2-yl)pyridin-2-yl]-N~2~-methylglycinamide], for which, in assay [1], the inhibition at 0.05 µM came out at 78% and the IC50 was 97 nM. Further, in the assay on Gli-Luc/MEF cells (Smo), the IC50 was 65 nM.

Take `CC(=O)N1[C@@H]2CC[C@H]1CN(c1cc(-c3nc4ccccc4n3C)c(Cl)cn1)C2` [Example A-187, 2-{2-[(1R,5S)-8-acetyl-3,8-diazabicyclo[3.2.1]oct-3-yl]-5-chloropyridin-4-yl}-1-methyl-1H-benzimidazole]: in assay [1], the inhibition at 0.05 µM was found to be 90% and the IC50 was found to be 27 nM. For the same compound, in the assay on Gli-Luc/MEF cells (Smo), the IC50 stood at 10 nM.

Take `CC(C)NC(=O)NC1CN(c2cc(-c3nc4ccccc4n3C)c(Cl)cn2)C1` [Example A-188, 1-{1-[5-chloro-4-(1-methyl-1H-benzimidazol-2-yl)pyridin-2-yl]azetidin-3-yl}-3-isopropylurea]: in assay [1], the inhibition at 0.05 µM is 97% and the IC50 turned out to be 15 nM. In the assay with Gli-Luc/MEF cells (Smo), the midpoint of inhibition, the IC50, lay at 10 nM.

On to `Cn1c(-c2cc(N3CCN(c4ccc(C#N)cn4)CC3)ncc2Cl)nc2ccccc21` [Example A-189, 6-{4-[5-chloro-4-(1-methyl-1H-benzimidazol-2-yl)pyridin-2-yl]piperazin-1-yl}nicotinonitrile], for which, in assay [1], the inhibition at 0.05 µM was found to be 99% and the IC50 turned out to be 11 nM. In the assay with Gli-Luc/MEF cells (Smo), this compound yielded an IC50 of 0.79 nM.

(Values after patent US20120157471A1, “BENZIMIDAZOLE DERIVATIVES” (PFIZER INC., priority 2009, published 2012).)
